According to publication PMC7413254 (Nature Communications, 2020):

Tests used:
Type in all cases: cell-based
PfCRT^Dd2 [1] = target: T1, PfCRT^Dd2 (Plasmodium falciparum, UniProt Q9N623, A220S/I356T/K76T/M74I/N326S/N75E/Q271E/R371I); assay: [3H]CQ uptake into Xenopus oocytes, cis-inhibition by unlabelled solute; settings: PfCRTDd2 oocytes, background [3H]CQ accumulation subtracted, normalised to oocyte type control
From the text: (§1) The orientation of PfCRT in the parasite’s DV membrane, and also in the oocyte plasma membrane, is such that its N- and C-termini extend into the cytosol. The oocytes were suspended in a reaction buffer adjusted to pH 5.5 to mimic the pH of the DV lumen[1],[2]. In this scenario, the transport of a substrate via PfCRT from the acidic extracellular solution into the oocyte cytosol[15] is analogous to the parasite’s PfCRT-mediated efflux of a substrate from the acidic DV and into the cytosol. Unless specified otherwise, this is the direction in which substrate transport was measured in the oocyte assays.
(§2) Unless specified otherwise, the transport assays were conducted over 1.5 h at 27.5 °C and the reaction buffer was ND96 (96 mM NaCl, 2 mM KCl, 1 mM MgCl2, 1.8 mM CaCl2, 10 mM MES and 10 mM Tris-base) at pH 5.5.
(§3) Ten oocytes were washed twice with the relevant ND96 buffer. […] The assay was terminated by removing the reaction buffer and washing the oocytes with ice-cold ND96 buffer. The oocytes were lysed in 10% (w/v) sodium dodecyl sulfate (SDS) and the radioactivity accumulated within each oocyte was measured with a MicroBeta^2 microplate liquid scintillation analyser (PerkinElmer).
(§4) At least four independent experiments were performed (on different days and using oocytes from different frogs), and within each experiment measurements were made from ten oocytes per treatment.

PfCRT^Ecu1110 [2] = target: T2, PfCRT^Ecu1110 (Plasmodium falciparum, UniProt Q9N623, A220S/I356L/K76T/N326D); assay: as above; settings: for PfCRT-mediated [3H]CQ transport, cis-inhibition (% PfCRTEcu1110 control): PfCRTEcu1110 oocytes, background [3H]CQ accumulation subtracted, normalised to oocyte type control; for [3H]CQ transport (% PfCRTEcu1110 control), cis-inhibition, PfCRTEcu1110: PfCRT-mediated component (background subtracted), sheet title says normalised to PfCRTDd2 control, mean ± SEM, SEM
From the text: as §1, §2, §3, §4

PfCRT^3D7 = PfCRT^3D7 (Plasmodium falciparum, UniProt Q8IBZ9); assay: cell-based; settings: PfCRT3D7 oocytes, normalised to oocyte type control
Experimental: as §2
(§5) The intracellular concentrations were calculated using previous estimates of the volume of stage V–VI oocytes (~400 nL[60]). […] The oocytes were injected with VF-6 suspended in 25 nL ND96 buffer adjusted to pH 5.0, 5.5, 6.0 or 7.0, which corresponded to the injection of 2.5–250 fmol of H^+. The Na^+-dependence of the trans-stimulatory effect of VF-6 was assessed by injecting the oocytes with VF-6 suspended in ND96 buffer (pH 5.5) or a Na^+-free version of this buffer (the Na^+ was replaced with choline).
as §4

PfCRT^Dd2 [3] = target: T1, PfCRT^Dd2; assay: cell-based; settings: for PfCRT-mediated [3H]CQ transport, trans-stimulation (% PfCRTDd2 control): PfCRTDd2 oocytes, normalised to oocyte type control; for [3H]CQ transport (% PfCRTDd2 control), trans-stimulation, PfCRTDd2: PfCRT-mediated component (background subtracted), mean ± SEM, SEM
Experimental: as §2, §5, §4

PfCRT^Ecu1110 [4] = target: T2, PfCRT^Ecu1110; assay: cell-based; settings: for PfCRT-mediated [3H]CQ transport, trans-stimulation (% PfCRTEcu1110 control): PfCRTEcu1110 oocytes, normalised to oocyte type control; for [3H]CQ transport (% PfCRTDd2 control), trans-stimulation, PfCRTEcu1110: PfCRT-mediated component (background subtracted), sheet title says normalised to PfCRTDd2 control, mean ± SEM, SEM
Experimental: as §2, §5, §4

[5] = [test solute]i = 5 mM (intracellular)
[6] = [test solute]i = 45 mM (intracellular; 30 mM for some solutes due to solubility)
[7] = [test solute]i = 5 mM (injected)
[8] = [test solute]i = 45 mM (30 mM for some solutes due to solubility)

T2 sequence (Q9N623 whole entry A220S/I356L/K76T/N326D): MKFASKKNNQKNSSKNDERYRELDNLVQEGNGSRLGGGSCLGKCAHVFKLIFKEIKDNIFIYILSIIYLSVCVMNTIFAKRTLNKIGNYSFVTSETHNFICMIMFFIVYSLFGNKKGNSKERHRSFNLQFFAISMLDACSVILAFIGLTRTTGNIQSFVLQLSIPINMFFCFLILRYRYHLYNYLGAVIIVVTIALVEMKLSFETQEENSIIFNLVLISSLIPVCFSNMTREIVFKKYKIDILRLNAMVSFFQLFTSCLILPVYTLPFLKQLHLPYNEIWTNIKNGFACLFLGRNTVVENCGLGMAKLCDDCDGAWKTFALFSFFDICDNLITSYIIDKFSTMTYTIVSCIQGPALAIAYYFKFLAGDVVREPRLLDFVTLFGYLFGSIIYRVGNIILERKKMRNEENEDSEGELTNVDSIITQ
T1 sequence (Q9N623 whole entry A220S/I356T/K76T/M74I/N326S/N75E/Q271E/R371I): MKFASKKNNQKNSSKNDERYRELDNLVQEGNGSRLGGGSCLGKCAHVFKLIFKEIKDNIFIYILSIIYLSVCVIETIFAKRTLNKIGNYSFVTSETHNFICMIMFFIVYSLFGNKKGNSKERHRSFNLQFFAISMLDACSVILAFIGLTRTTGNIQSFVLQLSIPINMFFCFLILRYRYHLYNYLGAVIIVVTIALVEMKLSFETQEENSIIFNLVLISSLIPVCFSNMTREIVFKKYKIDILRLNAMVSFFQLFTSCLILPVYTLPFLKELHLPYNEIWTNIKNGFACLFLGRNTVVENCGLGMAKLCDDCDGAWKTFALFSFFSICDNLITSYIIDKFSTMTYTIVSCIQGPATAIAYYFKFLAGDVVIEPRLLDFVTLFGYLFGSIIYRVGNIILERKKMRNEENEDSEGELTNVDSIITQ
Sequence of PfCRT^3D7 (Q8IBZ9 59-398): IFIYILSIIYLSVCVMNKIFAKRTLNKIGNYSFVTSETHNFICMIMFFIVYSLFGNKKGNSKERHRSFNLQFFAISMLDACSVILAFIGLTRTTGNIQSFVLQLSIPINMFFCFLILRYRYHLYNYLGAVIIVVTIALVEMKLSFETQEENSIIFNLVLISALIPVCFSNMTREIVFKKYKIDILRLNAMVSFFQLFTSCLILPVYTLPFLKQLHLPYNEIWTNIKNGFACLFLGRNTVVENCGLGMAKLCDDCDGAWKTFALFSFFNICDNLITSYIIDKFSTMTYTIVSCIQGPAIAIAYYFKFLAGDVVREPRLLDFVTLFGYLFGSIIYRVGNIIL

For LSDLHAHK [LK-8], the “PfCRT-mediated [3H]CQ transport, cis-inhibition (% PfCRTDd2 control)” value (PfCRT^Dd2 [1]; [test solute] = 0.5 mM) was 55 ± 2.3 % PfCRTDd2 control, the “PfCRT-mediated [3H]CQ transport, cis-inhibition (% PfCRTDd2 control)” value (PfCRT^Dd2 [1]; [test solute] = 1 mM) was 51 ± 0.1 % PfCRTDd2 control and the “PfCRT-mediated [3H]CQ transport, cis-inhibition (% PfCRTDd2 control)” value (PfCRT^Dd2 [1]; [test solute] = 2 mM) was 25 ± 0.3 % PfCRTDd2 control. For the same sequence, the “PfCRT-mediated [3H]CQ transport, cis-inhibition (% PfCRTEcu1110 control)” value (PfCRT^Ecu1110 [2]; [test solute] = 0.5 mM) was 62 ± 3.1 % PfCRTEcu1110 control, the “PfCRT-mediated [3H]CQ transport, cis-inhibition (% PfCRTEcu1110 control)” value (PfCRT^Ecu1110 [2]; [test solute] = 1 mM) was 48 ± 2.2 % PfCRTEcu1110 control and the “PfCRT-mediated [3H]CQ transport, cis-inhibition (% PfCRTEcu1110 control)” value (PfCRT^Ecu1110 [2]; [test solute] = 2 mM) was 39 ± 2.4 % PfCRTEcu1110 control. For the same sequence, the “PfCRT-mediated [3H]CQ transport, trans-stimulation (% PfCRT3D7 control)” value (“PfCRT-mediated … (% PfCRT3D7 control)” for short) (PfCRT^3D7; [5]) was 98 ± 3.4 % PfCRT3D7 control, the “PfCRT-mediated … (% PfCRT3D7 control)” value (PfCRT^3D7; [6]) was 96 ± 1.3 % PfCRT3D7 control and the “PfCRT-mediated [3H]CQ transport, trans-stimulation (% PfCRTDd2 control)” value (PfCRT^Dd2 [3]; [5]) was 98 ± 3.3 % PfCRTDd2 control. The “PfCRT-mediated [3H]CQ transport, trans-stimulation (% PfCRTDd2 control)” value (PfCRT^Dd2 [3]; [6]) was 97 ± 3.1 % PfCRTDd2 control, the “PfCRT-mediated [3H]CQ transport, trans-stimulation (% PfCRTEcu1110 control)” value (PfCRT^Ecu1110 [4]; [5]) was 97 ± 1.4 % PfCRTEcu1110 control and the “PfCRT-mediated [3H]CQ transport, trans-stimulation (% PfCRTEcu1110 control)” value (PfCRT^Ecu1110 [4]; [6]) was 98 ± 3.4 % PfCRTEcu1110 control.

DLDDALDK [DK-8] was tested, and the “PfCRT-mediated [3H]CQ transport, cis-inhibition (% PfCRTDd2 control)” value (PfCRT^Dd2 [1]; [test solute] = 0.5 mM) was 44 ± 3.7 % PfCRTDd2 control, the “PfCRT-mediated [3H]CQ transport, cis-inhibition (% PfCRTDd2 control)” value (PfCRT^Dd2 [1]; [test solute] = 1 mM) was 32 ± 1.5 % PfCRTDd2 control and the “PfCRT-mediated [3H]CQ transport, cis-inhibition (% PfCRTDd2 control)” value (PfCRT^Dd2 [1]; [test solute] = 2 mM) was 24 ± 0.8 % PfCRTDd2 control. For the same sequence, the “PfCRT-mediated [3H]CQ transport, cis-inhibition (% PfCRTEcu1110 control)” value (PfCRT^Ecu1110 [2]; [test solute] = 0.5 mM) was 49 ± 1.4 % PfCRTEcu1110 control, the “PfCRT-mediated [3H]CQ transport, cis-inhibition (% PfCRTEcu1110 control)” value (PfCRT^Ecu1110 [2]; [test solute] = 1 mM) was 39 ± 2.1 % PfCRTEcu1110 control and the “PfCRT-mediated [3H]CQ transport, cis-inhibition (% PfCRTEcu1110 control)” value (PfCRT^Ecu1110 [2]; [test solute] = 2 mM) was 30 ± 0.8 % PfCRTEcu1110 control. For the same sequence, the “[3H]CQ transport (% PfCRTEcu1110 control), cis-inhibition, PfCRTEcu1110” value (PfCRT^Ecu1110 [2]; [test solute] = 0.5 mM) was 15 ± 0.6 % PfCRTEcu1110 control, the “[3H]CQ transport (% PfCRTEcu1110 control), cis-inhibition, PfCRTEcu1110” value (PfCRT^Ecu1110 [2]; [test solute] = 1 mM) was 13 ± 0.1 % PfCRTEcu1110 control and the “[3H]CQ transport (% PfCRTEcu1110 control), cis-inhibition, PfCRTEcu1110” value (PfCRT^Ecu1110 [2]; [test solute] = 2 mM) was 9.0 ± 0.05 % PfCRTEcu1110 control. The “PfCRT-mediated … (% PfCRT3D7 control)” value (PfCRT^3D7; [5]) was 96 ± 3.3 % PfCRT3D7 control, the “PfCRT-mediated … (% PfCRT3D7 control)” value (PfCRT^3D7; [6]) was 96 ± 3.4 % PfCRT3D7 control and the “PfCRT-mediated [3H]CQ transport, trans-stimulation (% PfCRTDd2 control)” value (PfCRT^Dd2 [3]; [5]) was 98 ± 3.3 % PfCRTDd2 control. For the same sequence, the “PfCRT-mediated [3H]CQ transport, trans-stimulation (% PfCRTDd2 control)” value (PfCRT^Dd2 [3]; [6]) was 95 ± 4.1 % PfCRTDd2 control, the “[3H]CQ transport (% PfCRTDd2 control), trans-stimulation, PfCRTDd2” value (PfCRT^Dd2 [3]; [7]) was 98 ± 3.3 % PfCRTDd2 control and the “[3H]CQ transport (% PfCRTDd2 control), trans-stimulation, PfCRTDd2” value (PfCRT^Dd2 [3]; [8]) was 95 ± 4.1 % PfCRTDd2 control. The “PfCRT-mediated [3H]CQ transport, trans-stimulation (% PfCRTEcu1110 control)” value (PfCRT^Ecu1110 [4]; [5]) was 95 ± 4.9 % PfCRTEcu1110 control, the “PfCRT-mediated [3H]CQ transport, trans-stimulation (% PfCRTEcu1110 control)” value (PfCRT^Ecu1110 [4]; [6]) was 97 ± 2.9 % PfCRTEcu1110 control and the “[3H]CQ transport (% PfCRTDd2 control), trans-stimulation, PfCRTEcu1110” value (PfCRT^Ecu1110 [4]; [7]) was 29 ± 1.5 % PfCRTEcu1110 control. The “[3H]CQ transport (% PfCRTDd2 control), trans-stimulation, PfCRTEcu1110” value (PfCRT^Ecu1110 [4]; [8]) was 29 ± 1.1 % PfCRTEcu1110 control.

With EFTPPVQA [EA-8] the “PfCRT-mediated [3H]CQ transport, cis-inhibition (% PfCRTDd2 control)” value (PfCRT^Dd2 [1]; [test solute] = 1 mM) was 27 ± 0.9 % PfCRTDd2 control, the “PfCRT-mediated [3H]CQ transport, cis-inhibition (% PfCRTDd2 control)” value (PfCRT^Dd2 [1]; [test solute] = 2 mM) was 18 ± 0.2 % PfCRTDd2 control and the “PfCRT-mediated [3H]CQ transport, cis-inhibition (% PfCRTEcu1110 control)” value (PfCRT^Ecu1110 [2]; [test solute] = 0.5 mM) was 58 ± 1.1 % PfCRTEcu1110 control. The “PfCRT-mediated [3H]CQ transport, cis-inhibition (% PfCRTEcu1110 control)” value (PfCRT^Ecu1110 [2]; [test solute] = 1 mM) was 43 ± 1.6 % PfCRTEcu1110 control, the “PfCRT-mediated [3H]CQ transport, cis-inhibition (% PfCRTEcu1110 control)” value (PfCRT^Ecu1110 [2]; [test solute] = 2 mM) was 29 ± 2.5 % PfCRTEcu1110 control and the “PfCRT-mediated … (% PfCRT3D7 control)” value (PfCRT^3D7; [5]) was 131 ± 2.9 % PfCRT3D7 control. The “PfCRT-mediated … (% PfCRT3D7 control)” value (PfCRT^3D7; [6]) was 174 ± 3.3 % PfCRT3D7 control, the “PfCRT-mediated [3H]CQ transport, trans-stimulation (% PfCRTDd2 control)” value (PfCRT^Dd2 [3]; [5]) was 97 ± 2.2 % PfCRTDd2 control and the “PfCRT-mediated [3H]CQ transport, trans-stimulation (% PfCRTDd2 control)” value (PfCRT^Dd2 [3]; [6]) was 98 ± 1.9 % PfCRTDd2 control. For the same sequence, the “PfCRT-mediated [3H]CQ transport, trans-stimulation (% PfCRTEcu1110 control)” value (PfCRT^Ecu1110 [4]; [5]) was 127 ± 3.1 % PfCRTEcu1110 control and the “PfCRT-mediated [3H]CQ transport, trans-stimulation (% PfCRTEcu1110 control)” value (PfCRT^Ecu1110 [4]; [6]) was 136 ± 4.1 % PfCRTEcu1110 control.
